Data reported in publication PMC9774241, “Associating Biological Activity and Predicted Structure of Antimicrobial Peptides from Amphibians and Insects” (Antibiotics, 2022).
Converted amounts (≈) assume the structure as drawn. Residues, ends and D or L forms follow the SMILES beside them. No end group written: not given here.

Legend:
Format in all cases: cell-based
Conditions in all cases: broth microdilution in MHB, peptide 128 down to 0.5 µg/mL, 20–24 h at 37 °C, no visible growth; range of three independent experiments
[1] = system: Escherichia coli ATCC 25922
Description: (§1) Bacteria were grown overnight at 37 °C in Mueller-Hinton Broth (MHB; Sigma-Aldrich, St. Louis. MO, USA) in a shaking incubator and aliquoted into cryovials with a 50% glycerol solution in a 1:1 ratio. No additives were added to the MHB during the growth of bacterial isolates. Glycerol stocks were stored at −80 °C.
(§2) The antimicrobial activity of the putative AMPs was determined by a broth microdilution assay as described by the Clinical and Laboratory Standards Institute, with the published adaptations for testing of cationic peptides. Escherichia coli 25922 and Staphylococcus aureus 29213 isolates were purchased from the American Type Culture Collection (ATCC; Manassas, VA, USA). A human clinical isolate of Salmonella enterica serovar Enteritidis was provided by the BC Centre for Disease Control. Bacteria from stocks stored at −80 °C were streaked onto nonselective Columbia blood agar with 5% sheep blood (Oxoid) and incubated overnight at 37 °C. Next, 2–4 colonies were streaked onto a new agar plate to ensure uniform health of colonies used in the broth microdilution assay. Isolated colonies were suspended in MHB and the optical density was measured with a spectrophotometer to create an initial inoculum concentration of approximately 1 × 10^8 cfu/mL. The inoculum was diluted 1:250 to a final concentration of 2–8 × 10^5 cfu/mL, which was confirmed by performing a Total Viability Count (TVC). The TVC consisted of plating a 1:1000 dilution of the final inoculum on nonselective media and was also used to confirm the health and purity of the inoculum in each trial.
(§3) Lyophilized 80 µg peptide aliquots synthesized by GenScript (Piscataway, NJ, USA) were resuspended to 1.28 mg/mL with UltraPure water (Thermo Fisher Scientific, Waltham, MA, USA) and serially diluted in polypropylene 96-well microtiter plates (Greiner Bio-One #650261, Kremsmünster, Austria) from 128 down to 0.5 µg/mL. Two columns per plate were reserved for growth and sterility controls. Inoculum was added to the wells containing the peptide and the growth control. Plates were incubated for 20–24 h at 37 °C. The minimum inhibitory concentration (MIC) was determined as the lowest peptide concentration where there was no visible bacterial growth.

[2] = system: Salmonella enterica serovar Enteritidis (human clinical isolate)
Description: as §1, §2, §3

[3] = system: Staphylococcus aureus ATCC 29213
Description: as §1, §2, §3

Row | Compound | MIC, E. coli ATCC 25922 [1] [µg/mL] | MIC, Salmonella Enteritidis [2] [µg/mL] | MIC, S. aureus ATCC 29213 [3] [µg/mL]
1 | CC[C@H](C)[C@H](NC(=O)CNC(=O)[C@H](CCCNC(=N)N)NC(=O)[C@H](CCCCN)NC(=O)[C@H](CCCCN)NC(=O)[C@H](CCCNC(=N)N)NC(=O)[C@@H]1CCCN1C(=O)[C@@H](NC(=O)[C@H](CCSC)NC(=O)[C@H](CC(C)C)NC(=O)[C@@H](N)CCCCN)[C@@H](C)CC)C(=O)N[C@@H](Cc1ccccc1)C(=O)NCC(=O)NCC(=O)N[C@@H](CC(C)C)C(=O)N[C@@H](CC(C)C)C(=O)N[C@@H](CCCCN)C(=O)N[C@H](C(=O)NCC(=O)N[C@@H](CCCCN)C(=O)N[C@@H](CCCCN)C(=O)N[C@H](C(=O)N[C@@H](C)C(=O)N[C@@H](CS)C(=O)NCC(=O)N[C@@H](CC(C)C)C(=O)N[C@@H](CO)C(=O)NCC(=O)N[C@@H](CC(C)C)C(=O)N[C@@H](CS)C(=O)O)[C@@H](C)CC)C(C)C [OdTo4] (H-KLMIPRKKRGIFGGLLKVGKKIACGLSGLC-OH; N-terminus and C-terminus assumed) | 8 to 16 | 16 (≈ 5.02 µM) | 16 (≈ 5.02 µM)
2 | GILRSLGWIQMPRSRRRHR [AnFl2] | 16 to 32 | 128 | > 128
3 | GIFSLIKGAAK [LeBo1] | > 128 | > 128 | > 128
4 | RKIIAVSVHKLCRVKR [BoUs1] | 64 to 128 | 64 | > 128
5 | RPRWSHRSRR [PeNi18] | > 128 | > 128 | > 128
6 | CC(C)C[C@H](NC(=O)CN)C(=O)N[C@@H](CC(C)C)C(=O)NCC(=O)N[C@@H](CCCCN)C(=O)N[C@H](C(=O)N[C@@H](CC(C)C)C(=O)NCC(=O)N[C@H](C(=O)NCC(=O)N[C@@H](CCCCN)C(=O)N[C@@H](CCCCN)C(=O)N[C@H](C(=O)N[C@@H](CC(C)C)C(=O)N[C@@H](CS)C(=O)NCC(=O)N[C@H](C(=O)N[C@@H](CO)C(=O)NCC(=O)N[C@@H](CCCNC(=N)N)C(=O)N[C@@H](CS)C(=O)O)C(C)C)C(C)C)C(C)C)C(C)C [RaOm4] (H-GLLGKVLGVGKKVLCGVSGRC-OH; N-terminus and C-terminus assumed) | 4 to 8 | 32 (≈ 15.7 µM) | 64 to 128
7 | CC[C@H](C)[C@H](NC(=O)[C@H](CCCCN)NC(=O)[C@H](CCCCN)NC(=O)CNC(=O)[C@H](C)NC(=O)CNC(=O)[C@H](CC(C)C)NC(=O)[C@H](CC(C)C)NC(=O)CNC(=O)[C@H](CO)NC(=O)[C@H](CC(C)C)NC(=O)[C@H](CC(C)C)NC(=O)CN)C(=O)N[C@H](C(=O)N[C@@H](CS)C(=O)NCC(=O)N[C@@H](CC(C)C)C(=O)N[C@@H](CO)C(=O)NCC(=O)N[C@@H](CCSC)C(=O)N[C@@H](CS)C(=O)O)C(C)C [OdMa3] (H-GLLSGLLGAGKKIVCGLSGMC-OH; N-terminus and C-terminus assumed) | 8 to 16 | 64 (≈ 32.4 µM) | 32 (≈ 16.2 µM)
8 | GILSGLLGAGKKIVC [OdMa4] | 8 to 16 | 32 | > 128
9 | CC[C@H](C)[C@H](NC(=O)[C@H](CCCCN)NC(=O)[C@H](CS)NC(=O)[C@H](CCCCN)NC(=O)[C@H](CC(C)C)NC(=O)[C@H](CC(N)=O)NC(=O)[C@H](Cc1ccc(O)cc1)NC(=O)[C@H](CC(C)C)NC(=O)[C@H](CC(C)C)NC(=O)[C@@H](NC(=O)[C@@H](NC(=O)[C@H](C)NC(=O)[C@@H](NC(=O)[C@H](CC(N)=O)NC(=O)[C@H](CCCCN)NC(=O)[C@H](C)NC(=O)[C@@H](NC(=O)[C@H](CC(N)=O)NC(=O)[C@H](CCCCN)NC(=O)[C@H](C)NC(=O)[C@@H](NC(=O)[C@H](CC(=O)O)NC(=O)[C@H](CCSC)NC(=O)[C@H](Cc1ccccc1)NC(=O)CN)[C@@H](C)O)C(C)C)C(C)C)C(C)C)[C@@H](C)O)C(=O)N[C@H](C(=O)N[C@@H](CCCCN)C(=O)N[C@@H](C)C(=O)N[C@@H](CS)C(=O)O)[C@@H](C)O [OdMa12] (H-GFMDTAKNVAKNVAVTLLYNLKCKITKAC-OH; N-terminus and C-terminus assumed) | 4 (≈ 1.27 µM) | 64 (≈ 20.3 µM) | 64 to 128
10 | CC(C)C[C@H](NC(=O)CNC(=O)[C@@H](NC(=O)[C@@H](NC(=O)CNC(=O)[C@H](CS)NC(=O)[C@H](CC(C)C)NC(=O)[C@@H](NC(=O)[C@H](CCCCN)NC(=O)[C@H](CCCCN)NC(=O)CNC(=O)[C@@H](NC(=O)CNC(=O)[C@H](CC(C)C)NC(=O)[C@@H](NC(=O)[C@H](CCCCN)NC(=O)CNC(=O)[C@H](CC(C)C)NC(=O)[C@H](CC(C)C)NC(=O)CN)C(C)C)C(C)C)C(C)C)C(C)C)[C@@H](C)O)C(=O)N[C@@H](CS)C(=O)O [PeNi1] (H-GLLGKVLGVGKKVLCGVTGLC-OH) | 4 (≈ 1.99 µM) | 8 to 16 | 4 (≈ 1.99 µM)
11 | FLPSSPWNEGTYVLKKLKS [PeNi15] | > 128 | > 128 | > 128
12 | GIYTGRLLPVYIPQPRPPHPRLRR [ApCe1] | 4 to 8 | 16 to 32 | > 128
13 | GLVGKLVKGGLKLIGHVANG [RaSi1] | 8 to 16 | > 128 | 64 to 128
14 | ATAWKVPPGLQPIRPIRIRPLCGNDKS [PeNi16] | > 128 | > 128 | > 128
15 | TALKSLSILKKLAKLNM [PoSn2, rAMPage-discovered AMP, Polistes snelleni] | 64 to 128 | > 128 | > 128
16 | GIFSLIKGAAKVVAKGLG [PeNi3, rAMPage-discovered AMP, Pelophylax nigromaculatus] | 16 to 32 | 64 to 128 | 64 to 128
17 | GILRLVTRRFRFSPTNLNRYTVARLVSGVP [BoAr6] | 32 | 64 | 64 to 128
18 | WALRWKTR [PaVi1] | > 128 | > 128 | > 128
